Source: patent publication US9000162B2, “5,8-difluoro-4-(2-(4-(heteroaryloxy)-phenyl)ethylamino)quinazolines and their use as agrochemicals” (Dow AgroSciences LLC, priority 2008, dated 2015)
Converted amounts (≈) assume the structure as drawn.

Columns and labels:
[1] = test system: Pseudoperonospora cubensis (PSPECU); test: Cucumber downy mildew foliar protectant test; assay type: in vivo; conditions: 200 ppm foliar, inoculated one day after treatment, read-out: Activity against fungal diseases PSPECU
How it was run: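 Cucumber seedlings, first true leaf 20-80% expanded, were sprayed to wetness with formulated compound and inoculated next day with aqueous sporangia suspension. Severity was converted to percent control versus untreated inoculated plants: ***=80-100%, **=50-79%, *=0-49%.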

[2] = test system: Puccinia recondita tritici (PUCCRT); test: Leaf rust of wheat foliar protectant test; assay type: in vivo; conditions: 200 ppm foliar, inoculated one day after treatment, read-out: Activity against fungal diseases PUCCRT
How it was run: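 Wheat seedlings (3–8 per pot) were sprayed to wet with formulated compound and inoculated the next day with an aqueous Puccinia recondita tritici spore suspension. Severity was converted to % control versus untreated inoculated plants and rated *** 80–100%, ** 50–79%, * 0–49%.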

[3] = test system: Colorado Potato Beetle (Leptinotarsa decemlineata, LPTNDE); test: Colorado Potato Beetle larvae on sprayed tomato leaves; assay type: in vivo; conditions: foliar, 72 h, L2 larvae on sprayed tomato foliage, mortality after three days
Method: Formulated test compounds were diluted and sprayed onto leaves of tomato plants. When dry, plant foliage was removed from the plant and placed in 8-well agar trays. Five L2 Colorado potato beetle larvae were placed in each well, and the trays were sealed and incubated at 26° C. Mortality was evaluated after three days.

[4] = Mouse oral exposure (gavage), 14 days; set-up: species or system mice; conditions: female, CD-1/Swiss derived albino, in vivo, 5% w/v in 0.5% carboxymethylcellulose, monitored 14 days
Method: The effect on mice of oral exposure was determined for compounds differing only in the number of fluorine substituents on the quinazoline ring, as shown in Table 5. Three CD-1/Swiss derived albino female mice were administered compounds by gavage as a 5% w/v mixture in 0.5% carboxymethylcellulose solution. The animals were monitored for 14 days.

[5] = test system: Septoria tritici (SEPTTR); test: Septoria blotch of wheat foliar protectant test; assay type: in vivo; conditions: Zymoseptoria tritici, read-out: Activity against fungal diseases SEPTTR; for pest or weed control at 200 ppm: 200 ppm foliar, inoculated one day after treatment
How it was run: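 Wheat seedlings (3-10 per pot) were sprayed to wet with formulated compound and inoculated next day with Septoria tritici spores. Plants then had 1 day in a dark dew chamber and 3 days in a lighted one before greenhouse incubation. Severity versus untreated inoculated plants gave percent control, scored *** 80-100%, ** 50-79%, * 0-49%.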

[6] = test system: Magnaporthe grisea = Pyricularia oryzae (PYRIOR); test: whole plant or invertebrate; assay type: in vivo; conditions: foliar, read-out: Activity against fungal diseases PYRIOR
Caenorhabditis elegans = conditions: 10 micrograms per milliliter agar, 24 h at 20° C.
Method: The activity of the compounds against Caenorhabditis elegans was determined by dissolving compounds in DMSO, then applying them to petri dishes containing Nematode Growth Medium agar to a final concentration of 10 μg compound per milliliter agar. Escherichia coli bacteria were grown on the plates to provide a food source for the larvae of Caenorhabditis elegans. The bacteria were heat-killed at 65° C. before compounds were added to the plates.
The plates with compound and heat-killed bacteria were infested with 10 microliter drops containing eggs from wild-type Caenorhabditis elegans worms. Adult worms were dissolved in KOH and bleach and washed in Ringers solution to generate the egg suspension. Each compound was screened with approximately 400 eggs, divided between two petri dishes. Egg hatching was evaluated after 24 h at 20° C. Mortality was averaged over the two plates.

[7] = test system: Puccinia triticina (PUCCRT); test: Synergy with pyraclostrobin or epoxiconazole against wheat leaf rust; conditions: alone
Method: (§1) The compound was evaluated in mixtures with pyraclostrobin, or epoxiconazole for protectant and curative activity against wheat leaf rust (Puccinia triticina, PUCCRT), and Septoria blotch (Septoria tritici, SEPTTR).
(§2) The compound was formulated at six rates (8.1, 2.7, 0.9, 0.3, 0.1, 0.03 ppm) and applied to wheat plants alone and in all combinations of it with pyraclostrobin or epoxiconazole using the methods described in section “Fungicidal Activity” above. Plants were inoculated three days before treatment (3DC) or one day after treatment (1DP), incubated in a greenhouse until disease was expressed, and visually rated (reported as % DC Obs) as described above. The expected control was calculated using the Colby equation (Colby, S. R. Calculation of the synergistic and antagonistic response of herbicide combinations. Weeds 1967 15, 20-22.).
(§3) The following equation was used to calculate the expected activity of mixtures containing two active ingredients, A and B: Expected=A+B−(A×B/100)
(§4) A=observed efficacy of active ingredient A at the same concentration as used in the mixture
(§5) B=observed efficacy of active ingredient B at the same concentration as used in the mixture

[8] = test system: Septoria tritici (SEPTTR); test: Synergy with pyraclostrobin or epoxiconazole against Septoria blotch; conditions: alone
Method: as §1, §2, §3, §4, §5

Molecule `Fc1ccc(F)c2c(NCCc3ccc(Oc4cc(C(F)(F)F)ccn4)cc3)ncnc12` [Compound 6] has a pest or weed control at 200 ppm [1] of 80 to 100%, a pest or weed control at 200 ppm [2] of 80 to 100% and an LC90 [3] of 12.5 to 50 µg/mL (≈ 28 to 112 µM). The LD50 at 14 days [4] was 100 to 500 mg/kg, the pest or weed control at 200 ppm [5] was 80 to 100% and the pest or weed control at 200 ppm [6] was 80 to 100%.
For ivermectin [reference compound], the Percent mortality (Caenorhabditis elegans) was 95%.
With `Fc1cc(F)c2ncnc(NCCc3ccc(Oc4cc(C(F)(F)F)ccn4)cc3)c2c1F` [Compound 31] the pest or weed control at 200 ppm [1] was 80 to 100%, the pest or weed control at 200 ppm [2] was 80 to 100% and the LC90 [3] was 50 to 200 µg/mL (≈ 108 to 431 µM). The LD50 at 14 days [4] was > 500 mg/kg, the pest or weed control at 200 ppm [5] was 80 to 100% and the pest or weed control at 200 ppm [6] was 80 to 100%.
For `N#Cc1cc(Cl)ncc1Oc1ccc(CCNc2ncnc3c(F)ccc(F)c23)cc1` [Compound 125], the pest or weed control at 200 ppm [1] was 80 to 100%, the pest or weed control at 200 ppm [2] was 80 to 100% and the Percent mortality (Caenorhabditis elegans) was 0%. The pest or weed control at 200 ppm [5] was 80 to 100% and the pest or weed control at 200 ppm [6] was 80 to 100%.
Work on `COc1ccc(CCNc2ncnc3c(F)ccc(F)c23)c(C)c1` [Compound 42] yielded a pest or weed control at 200 ppm [1] of 80 to 100%, a pest or weed control at 200 ppm [2] of 80 to 100% and a Percent mortality (Caenorhabditis elegans) of 6%. It also gave a pest or weed control at 200 ppm [5] of 80 to 100% and a pest or weed control at 200 ppm [6] of 80 to 100%.
In the case of `Fc1cccc2c(NCCc3ccc(Oc4cc(C(F)(F)F)ccn4)cc3)ncnc12` [drawing 198, reference compound], the LD50 at 14 days [4] is reported as < 100 mg/kg.
In the case of `Fc1cc(F)c2ncnc(NCCc3ccc(Oc4ccc(C(F)(F)F)cn4)cc3)c2c1F` [Compound 74], the pest or weed control at 200 ppm [1] is reported as 80 to 100%, the pest or weed control at 200 ppm [2] is reported as 80 to 100% and the LC90 [3] is reported as 1 µg/mL (≈ 2.15 µM). It also gave a pest or weed control at 200 ppm [5] of 80 to 100% and a pest or weed control at 200 ppm [6] of 80 to 100%.
With `Fc1ccc(F)c2c(NCCc3ccc(Oc4nccc(C(F)(F)F)n4)cc3)ncnc12` [Compound 3] the pest or weed control at 200 ppm [1] was 80 to 100%, the pest or weed control at 200 ppm [2] was 80 to 100% and the Percent mortality (Caenorhabditis elegans) was 100%. For the same molecule, the pest or weed control at 200 ppm [5] was 80 to 100% and the pest or weed control at 200 ppm [6] was 50 to 79%.
In the case of `Fc1cc(Oc2cc(C(F)(F)F)ccn2)ccc1CCNc1ncnc2c(F)ccc(F)c12` [Compound 76], the pest or weed control at 200 ppm [1] is reported as 80 to 100%, the pest or weed control at 200 ppm [2] is reported as 80 to 100% and the Percent mortality (Caenorhabditis elegans) is reported as 100%. For the same molecule, the pest or weed control at 200 ppm [5] was 80 to 100% and the pest or weed control at 200 ppm [6] was 80 to 100%.
Molecule `Fc1ccc(F)c2c(NCCc3ccc(Oc4ccnc(C(F)(F)F)c4)cc3)ncnc12` [Example 11, (5,8-Difluoroquinazolin-4-yl)-{2-[4-(2-trifluoromethylpyridin-4-yloxy)-phenyl]-ethyl}-amine] has a melting point of 95 to 96 °C.
In the case of `Fc1cc(F)c2ncnc(NCCc3ccc(Oc4cnccc4C(F)(F)F)c(Cl)c3)c2c1F` [Compound 93], the pest or weed control at 200 ppm [2] is reported as 80 to 100%, the Percent mortality (Caenorhabditis elegans) is reported as 100% and the pest or weed control at 200 ppm [5] is reported as 80 to 100%. The pest or weed control at 200 ppm [6] was 80 to 100%.
In the case of `N#Cc1ccc(Oc2ccc(CCNc3ncnc4c(F)ccc(F)c34)cc2)nc1` [Compound 124], the pest or weed control at 200 ppm [1] is reported as 80 to 100%, the pest or weed control at 200 ppm [2] is reported as 80 to 100% and the LC90 [3] is reported as 3.1 to 12.5 µg/mL (≈ 7.68 to 31 µM). The pest or weed control at 25 ppm ([5]; foliar, Tested at 25 ppm (footnote b)) was 50 to 79% and the pest or weed control at 200 ppm [6] was 80 to 100%.
`[O-][n+]1ccc(C(F)(F)F)c(Oc2ccc(CCNc3ncnc4c(F)ccc(F)c34)cc2)c1` [Compound 115] gave a pest or weed control at 200 ppm [1] of 80 to 100%, a pest or weed control at 200 ppm [2] of 80 to 100% and a Percent mortality (Caenorhabditis elegans) of 100%. It also gave a pest or weed control at 200 ppm [5] of 80 to 100% and a pest or weed control at 200 ppm [6] of 80 to 100%.
In the case of `COC(=O)N(OC)c1ccccc1COc1ccn(-c2ccc(Cl)cc2)n1` [pyraclostrobin], the “% DC Obs” value ([7]; 1DP PUCCRT, 0.1 ppm) is reported as 8%, the “% DC Obs” value ([7]; 3DC PUCCRT, 0.3 ppm) is reported as 4% and the “% DC Obs” value ([8]; 1DP SEPTTR, 0.3 ppm) is reported as 49%. The “% DC Obs” value ([8]; 3DC SEPTTR, 0.1 ppm) was 14%.
For `COc1cc(CCNc2ncnc3c(F)ccc(F)c23)ccc1Oc1cc(C(F)(F)F)ccn1` [Compound 15], the pest or weed control at 200 ppm [1] was 80 to 100%, the pest or weed control at 200 ppm [2] was 80 to 100% and the “% DC Obs” value ([7]; 1DP PUCCRT, 0.3 ppm) was 33%. For the same molecule, the “% DC Obs” value ([7]; 3DC PUCCRT, 0.3 ppm) was 6%, the “% DC Obs” value ([7]; 3DC PUCCRT, 0.9 ppm) was 52% and the “% DC Obs” value ([8]; 1DP SEPTTR, 2.7 ppm) was 31%. For the same molecule, the “% DC Obs” value ([8]; 3DC SEPTTR, 0.9 ppm) was 22%, the pest or weed control at 200 ppm [5] was 80 to 100% and the pest or weed control at 200 ppm [6] was 80 to 100%.
For `Fc1ccc([C@]2(Cn3cncn3)O[C@H]2c2ccccc2Cl)cc1` (racemic) [epoxiconazole], the “% DC Obs” value ([7]; 1DP PUCCRT, 0.1 ppm) was 0%, the “% DC Obs” value ([7]; 3DC PUCCRT, 0.1 ppm) was 13% and the “% DC Obs” value ([8]; 1DP SEPTTR, 0.3 ppm) was 36%. For the same molecule, the “% DC Obs” value ([8]; 3DC SEPTTR, 0.3 ppm) was 35%.
